e = 2'-O-(2-methoxyethyl) (MOE); k = constrained ethyl (cEt); d = 2'-deoxy (DNA); m = 2'-O-methyl; f = 2'-fluoro
Tests used:
AMPA-R = experiment: [3H]AMPA radioligand binding assay on rat brain synaptic membranes; conditions: for % Inhibition @ Concentration 100 uM: Table 8 (3′-terminal nucleobase/sugar variants); for % Inhibition @ Concentration 0.1 uM: Table 8, 0.1 uM; for % Inhibition @ Concentration 1 uM: Table 8, 1 uM; for % Inhibition @ Concentration 10 uM: Table 8, 10 uM;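 for all read-outs here: competition binding in which test compounds at rising concentrations displace [3H]AMPA from AMPA-R on rat brain synaptic membranes, with reduced bound radioligand as read-out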
Description: The activity of anti-miR-17 compounds was evaluated in a radioligand binding assay which measured the binding of the [^3H] AMPA ligand to the AMPA-R present on rat brain synaptic membranes, in the presence of increasing concentrations of anti-miR-17 compound, anti-miR-17 compounds with affinity for the AMPA-R will bind to and compete with the binding of the [^3H] AMPA ligand.
5.0 nM of the ligand [^3H] AMPA, 1.0 mM of the non-specific ligand L-Glutamic acid, and anti-miR compound at uM concentrations were incubated with synaptic membranes prepared from Wistar rat cerebral cortex for 90 minutes.
The compounds were tested in the radioligand binding assay described herein, to determine the ability of the anti-miR-17 compounds to and compete with the binding of the [3H] AMPA ligand.

AMPA-R (GluA1/GluA4) = target: T1, AMPA-R (GluA1/GluA4) (Homo sapiens, UniProt P42261+P48058); experiment: Manual whole-cell patch clamp, ChanTest GluA1/GluA4 EZCells; assay type: cell-based
T1 construct: host or cells: ChanTest GluA1/GluA4 EZCells
T1 sequence (P42261 19-906): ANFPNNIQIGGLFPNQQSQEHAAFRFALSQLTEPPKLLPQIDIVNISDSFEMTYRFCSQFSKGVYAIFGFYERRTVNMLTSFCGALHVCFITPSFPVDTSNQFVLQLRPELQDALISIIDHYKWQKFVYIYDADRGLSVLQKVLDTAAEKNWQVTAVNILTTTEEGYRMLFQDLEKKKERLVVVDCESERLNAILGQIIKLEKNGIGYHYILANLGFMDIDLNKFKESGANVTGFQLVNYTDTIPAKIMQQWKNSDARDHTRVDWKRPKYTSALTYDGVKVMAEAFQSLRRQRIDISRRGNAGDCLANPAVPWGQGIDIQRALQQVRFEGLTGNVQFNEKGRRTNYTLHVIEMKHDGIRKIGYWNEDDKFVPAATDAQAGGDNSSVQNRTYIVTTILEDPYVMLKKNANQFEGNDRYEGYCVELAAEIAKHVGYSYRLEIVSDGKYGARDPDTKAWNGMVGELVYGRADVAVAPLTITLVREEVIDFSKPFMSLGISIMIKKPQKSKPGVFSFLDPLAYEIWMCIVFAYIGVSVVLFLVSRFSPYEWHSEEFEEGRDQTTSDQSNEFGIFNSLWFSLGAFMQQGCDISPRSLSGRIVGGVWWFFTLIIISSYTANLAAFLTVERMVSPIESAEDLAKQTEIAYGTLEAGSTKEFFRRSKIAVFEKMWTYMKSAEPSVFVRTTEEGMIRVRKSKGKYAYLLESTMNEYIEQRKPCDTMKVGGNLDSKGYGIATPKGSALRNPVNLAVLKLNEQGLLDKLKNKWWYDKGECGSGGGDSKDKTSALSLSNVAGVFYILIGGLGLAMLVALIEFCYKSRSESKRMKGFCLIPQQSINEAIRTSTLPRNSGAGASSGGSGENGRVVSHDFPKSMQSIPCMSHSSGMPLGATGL
T1 sequence (P48058 21-902): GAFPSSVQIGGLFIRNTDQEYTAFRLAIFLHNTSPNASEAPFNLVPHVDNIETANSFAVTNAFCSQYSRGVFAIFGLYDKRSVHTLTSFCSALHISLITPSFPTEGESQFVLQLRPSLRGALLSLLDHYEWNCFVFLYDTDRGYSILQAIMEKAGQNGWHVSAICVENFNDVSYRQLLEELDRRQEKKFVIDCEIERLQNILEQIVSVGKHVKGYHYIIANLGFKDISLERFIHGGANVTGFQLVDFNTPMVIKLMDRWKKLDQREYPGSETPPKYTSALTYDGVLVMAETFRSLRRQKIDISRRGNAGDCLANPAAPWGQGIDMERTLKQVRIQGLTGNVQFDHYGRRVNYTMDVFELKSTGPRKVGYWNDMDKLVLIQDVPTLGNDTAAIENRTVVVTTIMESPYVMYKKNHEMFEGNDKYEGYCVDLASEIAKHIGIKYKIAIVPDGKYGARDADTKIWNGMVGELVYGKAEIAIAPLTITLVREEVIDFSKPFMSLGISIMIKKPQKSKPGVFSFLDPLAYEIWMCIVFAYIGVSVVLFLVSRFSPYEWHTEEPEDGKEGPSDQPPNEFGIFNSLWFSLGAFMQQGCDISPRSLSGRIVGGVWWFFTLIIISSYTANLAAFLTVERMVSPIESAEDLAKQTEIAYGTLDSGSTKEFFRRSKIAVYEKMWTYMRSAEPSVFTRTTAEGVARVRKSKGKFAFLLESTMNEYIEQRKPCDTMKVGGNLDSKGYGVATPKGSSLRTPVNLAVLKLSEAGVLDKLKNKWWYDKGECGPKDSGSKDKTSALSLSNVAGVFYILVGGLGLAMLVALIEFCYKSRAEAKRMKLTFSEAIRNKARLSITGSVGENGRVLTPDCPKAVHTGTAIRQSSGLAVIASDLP
Description: To evaluate functional antagonism of anti-miR-17 oligonucleotides towards the AMPA-R, certain oligonucleotides were tested using the manual whole-cell patch clamp technique, which records membrane currents as a measure of AMPA-R activity.
Manual whole-cell patch clamp studies were performed by Metrion Biosciences (Cambridge, UK). Whole-cell voltage clamp experiments were performed at room temperature (18-21° C.) using an EPC10 patch clamp amplifier using Patchmaster software (HEKA Elektronik). Glass patch pipettes were fabricated from borosilicate glass capillaries (Harvard Apparatus) to resistances between 1.4 and 2.5 MΩ. Membrane currents were recorded using the whole-cell patch clamp technique. ChanTest® GluA1/GluA4 EZCells were clamped at a holding potential of −80 mV and membrane currents elicited by 10 μM(S)-AMPA delivered using a VC38 perfusion system (ALA Scientific Instruments). The […] current amplitude values were measured with each application of 10 μM(S)-AMPA. The fractional change of current amplitude produced by each concentration of compound was calculated relative to the control current (pre-compound) and expressed as percentage change (% inhibition) for each cell. RGLS4326 was tested in a separate study from all other compounds in Table 6.

miR-17 [1] = experiment: miR-17 luciferase sensor assay in HeLa cells; assay type: cell-based; conditions: for EC50: HeLa cells, 18- to 24-hour transfection
Description: The in vitro potency of certain compounds was evaluated using a miR-17 luciferase sensor assay which uses a luciferase reporter vector for miR-17, with two fully complementary miR-17 binding sites in tandem in the 3′-UTR of the luciferase gene. HeLa cells were co-transfected with the luciferase reporter vector and an exogenous miR-17-expression vector that acted to repress the luciferase signal.

miR-17 [2] = experiment: miR-17 PD-Sig in mouse kidney cell lines; assay type: cell-based
Description: The activity of certain compounds was evaluated using a mouse miR-17 Pharmacodynamic-Signature (miR-17 PD-Sig), which consists of the expression of 18 unique miR-17 target genes normalized by six reference housekeeping genes, to provide an unbiased and comprehensive assessment of miR-17 activity. The mouse miR-17 PD-Sig score was the calculated average of the 18 genes' individual log 2 fold changes (normalized by six housekeeping genes) compared to mock transfection (Lee et al., Nat. Commun., 2019, 10, 4148).
The PD-Sig for RGLS4326 in mIMCD3 cells (77.2, indicated by “*”) was not generated in this experiment; the value in Table 14 is that reported by Lee et al., Nat. Commun., 2019, 10, 4148. Blank cells in the table indicate that a compound was not tested in a particular cell line.

miR-17 [3] = experiment: microRNA polysome shift assay (miPSA) in kidney of wild type mice; assay type: in vivo, mouse; set-up: scale not given here; conditions: seven days later
Description: In vivo potency was evaluated using the microRNA polysome shift assay (miPSA). This assay was used to determine the extent to which compounds directly engage the miR-17 target in the kidney in normal and PKD mice. The miPSA relies on the principle that active miRNAs bind to their mRNA targets in translationally active high molecular weight (HMW) polysomes, whereas the inhibited miRNAs reside in the low MW (LMW) polysomes. Treatment with anti-miR results in a shift of the microRNA from HMW polysomes to LMW polysomes. Thus, the miPSA provides a direct measurement of microRNA target engagement by a complementary anti-miR (Androsavich et al., Nucleic Acids Research, 2015, 44: e13).
Wild type mice were administered a single dose of 0.3 mg/kg, 3 mg/kg, or 30 mg/kg. Kidney tissue was collected seven days later and subjected to the miPSA. The mean displacement score for each treatment is shown in Table 15 (PBS, n=17; RGLS4326 30 mg/kg, n=10; all other treatments, n=4-5). The tested oligonucleotides displaced miR-17 from translationally active polysome (as measured by miPSA) in normal mouse kidneys.

mice = conditions: in vivo
Description: Each compound was tested in a single dose at 2000 mg/kg, and at escalating doses (100, 450, and 2000 mg/kg).

Pcy/DBA mice = experiment: Efficacy in Pcy/DBA mouse model of PKD, alone and with tolvaptan; assay type: in vivo; conditions: 0.3% Tolvaptan in chow alone (vehicle SC);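 note: dosing began at 6 weeks of age, with endpoints collected 7 days after the last dose and PBS-injected wild-type DBA/2J mice as the normal reference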
Description: The efficacy of RG-NG-1015 was also evaluated in the Pcy/DBA mouse model of PKD alone and in combination with tolvaptan.
As outlined in FIGS. 6A and 6B, five groups of male Pcy/DBA mice (n=13 per treatment group) were treated subcutaneously with PBS or RG-NG-1015 at 25, 5, 1, or 0.2 mg/kg once every two weeks (Q2W). Two groups of male Pcy/DBA mice (n=13 per group) were also treated with RG-NG-1015 at 50 mg/kg once every four weeks (Q4W) or at 12.5 mg/kg once weekly (QW). Another four groups of male Pcy/DBA mice (n=13 per group) were treated subcutaneously with PBS or RG-NG-1015 at 25, 5, or 1 mg/kg Q2W in combination with tolvaptan at 0.3% (w/w chow) ad libitum. A group of male WT-BDA/2J mice received subcutaneous injections of PBS Q2W was included in the study as a normal range reference. Mice were randomized into treatment groups at 5 weeks of age, and treatment started at 6 weeks of age for 17 weeks and were sacrificed 7 days after the final treatment. Kidney weight, body weight, kidney cyst index, urine Ngal-to-Creatinine ratio (Ngal/Cr) were measured.

C57Bl/6J male mice = experiment: ICV maximum tolerated dose study, Study 1; assay type: in vivo, mouse; conditions: for Mortality/total number of mice: 7-day
Description: Compounds (RG-NG-1017, RGLS4326, RG-NG-1001) were evaluated in a pilot maximum tolerated dose (MTD) study (discussed below). RG-NG-1017, RGLS4326 and RG-NG-1001 were initially evaluated at 4 dose-levels each. RG-NG-1017 was included for evaluation as a non-AMPA-R binding compound, as compared to RGLS4326 and RG-NG-1001, which bind AMPA-R. C57Bl/6J male mice (Jackson Laboratories), age 6-7 weeks, were used in this study. Mice were assigned randomly to treatment groups, and the study was blinded. Animals were allowed to acclimate for no less than 5 days and housed on a 12 hr light/dark cycle (lights on 7:00 AM). No more than 4 mice were house in each cage in a ventilated cage rack system. The diet consisted of standard rodent chow and water ad libitum.
The following parameters were used for this study: • 1. Route(s) of administration: intracerebroventricular (ICV) dosing of RG-NG-1017, RG-NG-1001, RGLS4326 • 2. Dose Volume(s): 4 μL • 3. Formulation(s): vehicle, Ca^2+ and Mg^2+ free dPBS • 4. Dose Frequency: Once • 5. Study duration: 8 Days • 6. Number of Groups: 3 • 7. Number of animals per group: (2-4 each group) • 8. Total number of animals: […]
For the ICV administration, mice were anesthetized and positioned for injections. The skin over the skull was incised, and a small hole was made in the skull above the target using a microdrill. The stereotactic coordinates were anteroposterior (AP), −0.4 mm; mediolateral (ML), +/−1.0-1.5 mm; dorsoventral (DV), −3.0 mm from the bregma for injection into both the right and left lateral cerebral ventricles (Hironaka et al, 2015). Animals were injected unilaterally with 4 μl into the right lateral cerebral ventricle. Compounds were injected over 1-2 min, and the needle was left in place for 0.5-1 min prior to withdrawal. The incision was closed with sutures, wound clips, or VetBond.
Following ICV treatment (Day 0), animals were monitored for 7 days in which daily health checks, body weight, and mortality was recorded. On Day 7, brain and kidney were collected and fixed (10% formalin) and stored pending histology.

[4] = tested on: KspCre/Pkd1F/RC (Pkd1-F/RC) mice; experiment: Efficacy in Pkd1-F/RC mouse model of ADPKD; assay type: in vivo; conditions: 20 mg/kg SC on days 8, 10, 12, 15 of age
Description: Mice were sacrificed at 18 days of age, and kidney weight, body weight, cyst index, serum creatinine level, and blood urea nitrogen (BUN) level were measured. BUN level is a marker of kidney function. A higher BUN level correlates with poorer kidney function, thus a reduction in BUN level is an indicator of reduced kidney injury and damage and improved function. Statistical significance was calculated by one-way ANOVA with Dunnett's multiple correction.

| Compound | IC50 (AMPA-R; Experiment #2) [nM] | % Inhibition @ 0.1 uM (AMPA-R; Experiment #2, 0.1 uM) [%] | % Inhibition @ 1 uM (AMPA-R; Experiment #2, 1 uM) [%] | % Inhibition @ 10 uM (AMPA-R; Experiment #2, 10 uM) [%] | % Inhibition @ 100 uM (AMPA-R; Experiment #2, 100 uM) [%] | % Inhibition on membrane currents evoked with 10 uM (s)-AMPA (Mean ± SD) (AMPA-R (GluA1/GluA4); 0.3 uM compound) [%] | % Inhibition on membrane currents evoked with 10 uM (s)-AMPA (Mean ± SD) (AMPA-R (GluA1/GluA4); 3 uM compound) [%] | Log2FC (37.5 nM) (miR-17 [1]) | EC50 (miR-17 [1]) [nM] | miPSA Displacement Score, Mean (miR-17 [3]; single dose 30 mg/kg) | CNS toxicity in high-dose mouse toxicity studies (mice) | IC50 (AMPA-R; Table 8) [nM] | % Inhibition @ Concentration 100 uM (AMPA-R) [%] | % Inhibition @ Concentration 0.1 uM (AMPA-R) [%] | % Inhibition @ Concentration 1 uM (AMPA-R) [%] | % Inhibition @ Concentration 10 uM (AMPA-R) [%] | IC50 (AMPA-R; Experiment #1) [nM] | % Inhibition @ 0.1 uM (AMPA-R; Experiment #1, 0.1 uM) [%] | % Inhibition @ 1 uM (AMPA-R; Experiment #1, 1 uM) [%] | % Inhibition @ 10 uM (AMPA-R; Experiment #1, 10 uM) [%] | other results |
| --- | --- | --- | --- | --- | --- | --- | --- | --- | --- | --- | --- | --- | --- | --- | --- | --- | --- | --- | --- | --- | --- |
| ASGSCMAFCFUFUMUSCS [RG-NG-1016] | > 100000 | 4.7 | 10.4 | 12.3 | 5.9 | 16.0 ± 6.2 | 27.1 ± 9.8 | 2.32 | 20.3 | 1.134 | no CNS-toxicity were observed | – | – | – | – | – | – | – | – | – | functional antagonism towards AMPA-R relative to RGLS4326 (AMPA-R (GluA1/GluA4); in words): reduced functional antagonism towards AMPA-R; EC50 (miR-17 [2]; mIMCD3, mouse, Normal): 146 nM; miPSA Displacement Score, Mean (miR-17 [3]; single dose 3 mg/kg): 2.263; miPSA Displacement Score, Mean (miR-17 [3]; single dose 0.3 m/kg): 1.892; CNS-related findings noted (mice; mouse, sc, 2000 mg/kg): No |
| GSCEAECETEGSTEADASGSCMAFCFUFUMUSGS (GCACTGTAAGCACUUUG; sugars from the 5' end keeeekedkkmfffmkk, backbone and methylation of C not given here) [RG-NG-1032] | – | – | – | – | – | – | – | 3.85 | < 1 | – | – | 1170 | 92 | 24.3 | 43.8 | 78.3 | – | – | – | – | – |
| Cc1ccccc1C(=O)Nc1ccc(C(=O)N2CCCC(O)c3cc(Cl)ccc32)c(C)c1 (centres unmarked) [Tolvaptan, tolvaptan, reference compound] | – | – | – | – | – | – | – | – | – | – | – | – | – | – | – | – | – | – | – | – | Mean Cystic Area (Pcy/DBA mice): 44.68%; Mean Cystic Area % Inhibition (Pcy/DBA mice): 29.2%; Mean KW/BW (Pcy/DBA mice): 59.3 mg/g; Mean KW/BW % Inhibition (Pcy/DBA mice): 44.9%; Mean Urine Ngal/Cr (Pcy/DBA mice): 8.73 mg/mg; Mean Urine Ngal/Cr % Inhibition (Pcy/DBA mice): 62.1% |
| ASGSCSASCSUSUSUSGS [RG-NG-1001] | 190 | 42.2 | 68.3 | 90.1 | 93.5 | 80.5 ± 6.3 | 88.8 ± 4.5 | – | – | – | ataxia, lethargy | 150 | 102.9 | 41.9 | 81.3 | 99.3 | 170 | 41.1 | 76.2 | 89.1 | % Inhibition @ 100 uM (AMPA-R; Experiment #1, 100 uM): 91.3%; IC50 (AMPA-R; Experiment #3): 100 nM; % Inhibition @ 0.1 uM (AMPA-R; Experiment #3, 0.1 uM): 59.4%; % Inhibition @ 1 uM (AMPA-R; Experiment #3, 1 uM): 84.8%; % Inhibition @ 10 uM (AMPA-R; Experiment #3, 10 uM): 94.6%; % Inhibition @ 100 uM (AMPA-R; Experiment #3, 100 uM): 96.6%; Mortality/total number of mice (C57Bl/6J male mice; single ICV 2.5 μg): 1/3; Mortality/total number of mice (C57Bl/6J male mice; single ICV 5 μg): 4/4; Mortality/total number of mice (C57Bl/6J male mice; single ICV 10 μg): 3/4; Mortality/total number of mice (C57Bl/6J male mice; single ICV 25 μg): 3/3; Mortality/total number of mice (C57Bl/6J male mice; single ICV 50 μg): 3/3; Mortality/total number of mice (C57Bl/6J male mice; single ICV 100 μg): 2/2; Mortality/total number of mice (C57Bl/6J male mice; single ICV 300 μg): 2/2; Mortality/total number of mice (C57Bl/6J male mice; single ICV 600 μg): 2/2; MTD (C57Bl/6J male mice; single ICV, C57Bl/6J mice, predicted from the study): under 2.5 μg |
| ASCSAMAFUFGFCMASCS [RG5124, reference compound] | > 100000 | −1.2 | 1.6 | −4.2 | 7.2 | 14.1 ± 7.2 | 42.1 ± 9.4 | 0.40 | – | 0.5935 | – | ≥ 100000 | 10.1 | −8.6 | −0.6 | 4.4 | > 100000 | 0.4 | 12.9 | −3.7 | % Inhibition @ 100 uM (AMPA-R; Experiment #1, 100 uM): −5.1%; IC50 (AMPA-R; Experiment #3): > 100000 nM; % Inhibition @ 0.1 uM (AMPA-R; Experiment #3, 0.1 uM): 5.1%; % Inhibition @ 1 uM (AMPA-R; Experiment #3, 1 uM): 9.3%; % Inhibition @ 10 uM (AMPA-R; Experiment #3, 10 uM): 16.1%; % Inhibition @ 100 uM (AMPA-R; Experiment #3, 100 uM): 23%; EC50 (miR-17 [2]; D52B5, mouse, PKD): 507 nM; BW/KW Ratio, Mean Difference vs. PBS [4]: 26.14; Serum BUN, Mean Difference vs. PBS [4]: +8.138; Serum Creatine, Mean Difference vs. PBS [4]: +0.07838; Mean BW/KW Ratio ([4]; sacrificed at 18 days): 91.75; Mean Serum BUN ([4]; sacrificed at 18 days): 50.61; Mean Serum Creatine ([4]; sacrificed at 18 days): 0.2403 |

From patent US12559750B2, “Methods and compositions for treatment of polycystic kidney disease” (Regulus Therapeutics Inc., priority 2021, dated 2026)
